Source: patent US8993595B2, “Macrocyclic serine protease inhibitors” (priority 2009, dated 2015)

Assays:
[1] = biological target: T1, HCV NS3-4A Protease Genotype 4a (Hepatitis C virus genotype 4a, UniProt O39929); assay: HCV protease assay, recombinant NS3-4A genotype 4a; assay type: biochemical; settings: mean ± SD, 3 experiments
T1 construct: recombinant HCV NS3-4A proteases
Protocol: The compounds were tested at a variety of concentrations in assay buffer containing a final DMSO concentration of 5%. Reactions were allowed to proceed for 60 min at room temperature and fluorescence measurements were recorded with a Tecan Infinity Spectrofluorimeter. The IC50 values were determined from the percent inhibition versus concentration data using a sigmoidal non-linear regression analysis based on four parameters with Tecan Magellan software.
Compound 52 was tested against genotypes 1a, 1b, 2a, 3a, and 4a of recombinant HCV NS3-4A proteases, along with other cellular proteases.

[2] = system: HCV Con1 subgenomic replicon in Huh-7 cells (GS4.1 cells); assay: HCV Replicon Assay (NS4A ELISA); assay type: cell-based; settings: Hepatitis C virus, 72 hr
Protocol: Huh-7 cells containing HCV Con1 subgenomic replicon (GS4.1 cells) were grown in Dulbecco's Modified Eagle Medium (DMEM) supplemented with 10% fetal bovine serum (FBS), 2 mM L-glutamine, 110 mg/L sodium pyruvate, 1× non-essential amino acids, 100 U/mL penicillin-streptomycin, and 0.5 mg/mL G418 (Invitrogen). For dose-response testing, the cells were seeded in 96-well plates at 7.5×10^3 cells/well in a volume of 50 μL, and incubated at 37° C./5% CO2. Three hours after plating, 50 μL of ten 2-fold serial dilutions of compounds (highest concentration, 75 μM) were added, and cell cultures were incubated at 37° C./5% CO2 in the presence of 0.5% DMSO. Alternatively, compounds were tested at a single concentration of 15 μM. In all cases, Huh-7 cells lacking the HCV replicon served as negative control. The cells were incubated in the presence of compounds for 72 hr after which they were monitored for expression of the NS4A protein by enzyme-linked immunosorbent assay (ELISA). For this, the plates were then fixed for 1 min with acetone/methanol (1:1, v/v), washed twice with phosphate-buffered saline (PBS), 0.1% Tween 20, blocked for 1 hr at room temperature with TNE buffer containing 10% FBS and then incubated for 2 hr at 37° C. with the anti-NS4A mouse monoclonal antibody A-236 (ViroGen) diluted in the same buffer. After washing three times with PBS, 0.1% Tween 20, the cells were incubated 1 hr at 37° C. with anti-mouse immunoglobulin G-peroxidase conjugate in TNE, 10% FBS. After washing as described above, the reaction was developed with O-phenylenediamine (Zymed). The reaction was stopped after 30 min with 2 N H2SO4, and absorbance was read at 492 nm using Sunrise Tecan spectrophotometer. EC50 values were determined from the % inhibition versus concentration data using a sigmoidal non-linear regression analysis based on four parameters with Tecan Magellan software.

[3] = system: Replicon cells (genotype 1b); assay: Long-term treatment assay in replicon cells; assay type: cell-based, HCV
Protocol: Compound 52 was tested in a long-term treatment assay. Replicon cells (genotype 1b) were treated with the compound, without G418, for 14 days, and the level of replicon RNA was measured at multiple time points. At the end of the 14-day treatment, cells were cultured in the absence of the compound, but with or without G418, in 10 cm dishes for 21 days. Surviving cell colonies were then stained with crystal violet and counted.

[4] = system: C-1a cell line (genotype 1a replicon selected with 25 nM, D168A); assay: Extent of resistance after selection, C-1a; assay type: cell-based, HCV; settings: selecting conc. 25 nM
Protocol: Replicon cells (genotype 1a or 1b) were treated with various concentrations of compound 52 in the presence of G418. Treatment-emergent genotypic changes were identified by population sequencing of NS3 (both protease and helicase regions). The activity of compound 52 and other compounds was evaluated by NS5A western blot after selection or luciferase assay during and after selection.

human CYP450 2D6 = biological target: T2, human CYP450 2D6 (Homo sapiens, UniProt P10635); assay: CYP450 inhibition assay, 2D6; assay type: in vitro ADME
T2 construct: purchased BD Bioscience
Protocol: Compound 52 was incubated with human CYP450 cDNA-expressed isoenzymes according to the protocol (BD Bioscience). For CYP2C9, a luminogenic substrate was used with the P450-Glo™ kit. In addition, the effect of the compound on CYP2C9-mediated diclofenac metabolism was measured by LC-UV. The potential inhibitory effect of the compound on human UGT1A1 was examined using human liver microsomes and bilirubin as substrate. The metabolites (mono- and di-glucuronidated bilirubin) were measured by LC-UV.

CD-1 mice = assay type: in vivo; settings: oral doses up to 2,000 mg/kg
Protocol: The potential for compound 52 to induce mutations in a bacterial system (S. typhimurium and E. coli—at concentrations up to 5,000 μg/plate), to induce chromosomal aberrations in cultures of human peripheral blood lymphocytes (at concentrations up to 84 μg/mL), and to induce clastogenic and/or aneugenic activity in CD-1 mice (at oral doses up to 2,000 mg/kg) was evaluated. The two in vitro studies were performed with and without the addition of a mammalian metabolic activation system (rat liver S9 subcellular fraction).

T2 sequence (P10635 whole entry): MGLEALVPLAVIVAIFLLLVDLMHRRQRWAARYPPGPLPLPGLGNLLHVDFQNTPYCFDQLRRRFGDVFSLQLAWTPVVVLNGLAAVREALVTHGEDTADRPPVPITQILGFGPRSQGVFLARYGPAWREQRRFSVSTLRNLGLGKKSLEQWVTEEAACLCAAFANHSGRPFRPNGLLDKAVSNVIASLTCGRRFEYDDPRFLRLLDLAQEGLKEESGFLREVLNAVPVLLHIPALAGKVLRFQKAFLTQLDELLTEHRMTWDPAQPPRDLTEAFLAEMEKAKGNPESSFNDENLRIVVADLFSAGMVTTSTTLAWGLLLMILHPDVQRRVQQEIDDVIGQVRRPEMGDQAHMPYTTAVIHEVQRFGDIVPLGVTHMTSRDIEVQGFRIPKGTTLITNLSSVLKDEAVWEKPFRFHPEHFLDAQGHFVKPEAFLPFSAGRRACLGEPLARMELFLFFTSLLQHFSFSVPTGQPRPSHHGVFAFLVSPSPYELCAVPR
T1 sequence (O39929 1658-1711): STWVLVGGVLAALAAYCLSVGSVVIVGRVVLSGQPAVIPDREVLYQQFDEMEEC
T1 sequence (O39929 1027-1657): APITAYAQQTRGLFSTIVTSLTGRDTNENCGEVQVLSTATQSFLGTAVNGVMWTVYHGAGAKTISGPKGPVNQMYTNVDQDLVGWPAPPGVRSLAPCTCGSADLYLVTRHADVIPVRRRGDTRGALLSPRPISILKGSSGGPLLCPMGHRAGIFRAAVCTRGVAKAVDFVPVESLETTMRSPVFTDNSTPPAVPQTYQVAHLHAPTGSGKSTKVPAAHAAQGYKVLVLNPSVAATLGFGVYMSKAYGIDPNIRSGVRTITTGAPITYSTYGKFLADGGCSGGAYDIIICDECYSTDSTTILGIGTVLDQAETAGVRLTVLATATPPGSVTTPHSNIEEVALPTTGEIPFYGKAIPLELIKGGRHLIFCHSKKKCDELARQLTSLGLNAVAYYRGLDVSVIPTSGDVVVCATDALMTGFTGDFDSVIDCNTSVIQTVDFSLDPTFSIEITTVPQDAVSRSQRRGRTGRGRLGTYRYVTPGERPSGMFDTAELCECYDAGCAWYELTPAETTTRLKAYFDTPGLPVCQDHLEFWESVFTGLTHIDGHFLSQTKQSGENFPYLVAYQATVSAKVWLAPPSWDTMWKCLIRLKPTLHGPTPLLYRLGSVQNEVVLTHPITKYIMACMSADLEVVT

COc1ccc2c(O[C@H]3CCN4C(=O)N(C)CCCC/C=C\[C@@H]5C[C@@]5(C(=O)NS(=O)(=O)C5(C)CC5)NC(=O)[C@@H]4C3)cc(-c3nc(C(F)(F)F)cs3)nc2c1C [Compound 52, 1-methyl-cyclopropanesulfonic acid{(Z)-(1S,4R,6S,18S)-18-[7-methoxy-8-methyl-2-(4-trifluoromethyl-thiazol-2-yl)-quinolin-4-yloxy]-13-methyl-2,14-dioxo-3,13,15-triaza-tricyclo[13.4.0.0*4,6*]nonadec-7-ene-4-carbonyl}amide]
IC50 [1]: 0.81 ± 0.03 nM | EC50 [2]: < 1000 nM | colonies remained on average ([3]; 14-day treatment with 10 nM, then cultured with G418 for 21 days): 6 colonies | mean maximal RNA reduction ([3]; replicon RNA, after 10 days of treatment with 10 nM, without G418): 3.7 log10 | Fold-Change [4]: 900 ± 64 | IC50 (human CYP450 2D6): ≥ 10000 nM | genotoxicity, mouse micronucleus test (CD-1 mice): no genotoxicity
